biological target: T1, p53 Y220C (Homo sapiens, UniProt P04637, Y220C); experiment: In vitro DNA binding activity assay (HTRF / TR-FRET): stabilization of p53 Y220C and increase of its DNA binding activity; type: biochemical; conditions: recombinant His-tagged p53 Y220C DNA binding domain (aa 94-312), biotin-labeled consensus DNA, incubated at 27° C. or 29° C. for 60 min
T1 construct: The recombinant protein was a truncation mutant containing only amino acids 94-312 of p53; made in house; host or cells: E. coli
How it was run: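 His-tagged p53 Y220C, E. coli-expressed, binding biotin-labeled consensus DNA measured by HTRF (anti-His-APC, streptavidin-europium). Compounds from 4.5 mM DMSO stocks, 3-fold serial dilutions; incubations at room temperature 15 min, then 20 min. SC150 = concentration raising DNA binding by 50%.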

T1 sequence (P04637 94-312, change not shown): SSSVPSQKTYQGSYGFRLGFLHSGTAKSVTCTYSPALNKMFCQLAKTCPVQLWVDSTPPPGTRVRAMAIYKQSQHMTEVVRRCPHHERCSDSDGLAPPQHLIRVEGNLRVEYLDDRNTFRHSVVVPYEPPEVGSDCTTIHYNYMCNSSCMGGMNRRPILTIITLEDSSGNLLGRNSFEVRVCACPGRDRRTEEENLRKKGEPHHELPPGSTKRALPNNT

Compound | SC150 (concentration of the compound required to increase the DNA binding activity by 50%)
C=C(C#N)Cn1c(C#CCNc2ccc(S(C)(=O)=O)cc2OC)cc2c(N[C@H]3CC[C@H](N(C)C)CC3)cccc21 [Compound 78A, 2-[(2-{3-[(4-methanesulfonyl-2-methoxyphenyl)amino]prop-1-yn-1-yl}-4-{[(1R,4R)-4-(dimethylamino)cyclohexyl]amino}-1H-indol-1-yl)methyl]prop-2-enenitrile] | +++ (+++ = 0.1 μM ≤ SC150 < 0.2 μM)
COc1cc(S(=O)(=O)N(C)C)ccc1NCC#Cc1cc2c(NC3CCN(C(C)=O)CC3)cccc2n1CC(F)(F)F [Compound 755A, 4-[(3-{4-[(1-acetylpiperidin-4-yl)amino]-1-(2,2,2-trifluoroethyl)-1H-indol-2-yl}prop-2-yn-1-yl)amino]-3-methoxy-N,N-dimethylbenzene-1-sulfonamide] | + (+ = 0 μM ≤ SC150 < 0.05 μM)
CCN1CCC(Nc2cccc3c2cc(C#CCNc2ccc(S(C)(=O)=O)cc2OC)n3CC(F)(F)F)CC1 [Compound 537A] | + (+ = 0 μM ≤ SC150 < 0.05 μM)
COc1cc(C(=O)N2CCC(O)CC2)ccc1NCC#Cc1cc2c(N[C@@H]3CCN(C)C[C@@H]3F)cccc2n1CC(F)(F)F [Compound 919A] | + (+ = 0 μM ≤ SC150 < 0.05 μM)
COc1cc(S(=O)(=O)N(C)CCO)ccc1NCC#Cc1cc2c(NC3CCOCC3)cccc2n1CC(F)(F)F [Compound 996A, N-(2-hydroxyethyl)-3-methoxy-N-methyl-4-[(3-{4-[(oxan-4-yl)amino]-1-(2,2,2-trifluoroethyl)-1H-indol-2-yl}prop-2-yn-1-yl)amino]benzene-1-sulfonamide] | + (+ = 0 μM ≤ SC150 < 0.05 μM)
CNC(=O)c1ccc(NCC#Cc2cc3c(NC4CCN(CC(O)COC)CC4)cccc3n2CC(F)(F)F)c(OCCF)c1 (stereo not drawn) [Compound 652A, 3-(2-fluoroethoxy)-4-{[3-(4-{[1-(2-hydroxy-3-methoxypropyl)piperidin-4-yl]amino}-1-(2,2,2-trifluoroethyl)-1H-indol-2-yl)prop-2-yn-1-yl]amino}-N-methylbenzamide] | + (+ = 0 μM ≤ SC150 < 0.05 μM)
COc1cc(S(=O)(=O)NC(C)=O)ccc1NCC#Cc1cc2c(N[C@H]3CC[C@H](N4CC5(COC5)C4)CC3)cccc2n1CC(F)(F)F [Compound 208A, N-(3-methoxy-4-{[3-(4-{[(1R,4R)-4-{2-oxa-6-azaspiro[3.3]heptan-6-yl}cyclohexyl]amino}-1-(2,2,2-trifluoro-ethyl)-1H-indol-2-yl)prop-2-yn-1-yl]amino}benzene-sulfonyl)acetamide] | + (+ = 0 μM ≤ SC150 < 0.05 μM)
COCC(CN1CCC(Nc2cccc3c2cc(C#CCNc2ccc(S(C)(=O)=O)cc2OC)n3CC(F)(F)F)CC1)OC(C)=O (stereo not drawn) [Compound 593A, 1-{4-[(2-{3-[(4-methanesulfonyl-2-methoxyphenyl)amino]prop-1-yn-1-yl}-1-(2,2,2-trifluoroethyl)-1H-indol-4-yl)amino]piperidin-1-yl}-3-methoxypropan-2-yl acetate] | + (+ = 0 μM ≤ SC150 < 0.05 μM)
COCCN(C)S(=O)(=O)c1ccc(NCC#Cc2cc3c(NC4CCN(CC(O)CO)CC4)cccc3n2CC(F)(F)F)c(OC)c1 (stereo not drawn) [Compound 572A, 4-{[3-(4-{[1-(2,3-dihydroxypropyl)piperidin-4-yl]amino}-1-(2,2,2-trifluoroethyl)-1H-indol-2-yl)prop-2-yn-1-yl]amino}-3-methoxy-N-(2-methoxyethyl)-N-methylbenzene-1-sulfonamide] | + (+ = 0 μM ≤ SC150 < 0.05 μM)
COc1cc(S(C)(=O)=O)ccc1NCC#Cc1cc2c(NC3CCN(C[C@H](CO)OC)CC3)cccc2n1CC(F)(F)F [Compound 629A, (2R)-3-{4-[(2-{3-[(4-methanesulfonyl-2-methoxyphenyl)amino]prop-1-yn-1-yl}-1-(2,2,2-trifluoroethyl)-1H-indol-4-yl)amino]piperidin-1-yl}-2-methoxypropan-1-ol] | + (+ = 0 μM ≤ SC150 < 0.05 μM)
CNC(=O)c1ccc(NCC#Cc2cc3c(N[C@H]4CC[C@@H](N(C)C)CC4)cccc3n2CC(F)(F)F)c(O)c1 [Compound 97A, 3-hydroxy-N-methyl-4-{[3-(4-{[(1S,4S)-4-(dimethylamino)cyclo-hexyl]amino}-1-(2,2,2-trifluoroethyl)-1H-indol-2-yl)prop-2-yn-1-yl]amino}benzamide] | + (+ = 0 μM ≤ SC150 < 0.05 μM)
COc1cc(S(C)(=O)=O)ccc1NCC#Cc1cc2c(N[C@H]3CCC[C@H](N)C3)cccc2n1CC(F)(F)F (relative stereo) [Compound 26A, rel-(1R,3R)-N^1-(2-{3-[(4-methanesulfonyl-2-methoxyphenyl)amino]prop-1-yn-1-yl}-1-(2,2,2-trifluoroethyl)-1H-indol-4-yl)cyclohexane-1,3-diamine] | + (+ = 0 μM ≤ SC150 < 0.05 μM)
COc1cc(S(=O)(=O)Nc2cc(C)on2)ccc1NCC#Cc1cc2c(N[C@H]3CC[C@H](N(C)C)CC3)cccc2n1CC(F)(F)F [Compound 55A, 3-methoxy-N-(5-methyl-1,2-oxazol-3-yl)-4-{[3-(4-{[(1R,4R)-4-(dimethylamino)cyclohexyl]amino}-1-(2,2,2-trifluoroethyl)-1H-indol-2-yl)prop-2-yn-1-yl]amino}benzene-1-sulfonamide] | + (+ = 0 μM ≤ SC150 < 0.05 μM)
COc1cc(S(=O)(=O)NC2CCOCC2)ccc1NCC#Cc1cc2c(NC3CCS(=O)(=O)CC3)cccc2n1CC(F)(F)F [Compound 1041A, 4-[(3-{4-[(1,1-dioxo-1λ^6-thian-4-yl)amino]-1-(2,2,2-trifluoroethyl)-1H-indol-2-yl}prop-2-yn-1-yl)amino]-3-methoxy-N-(oxan-4-yl)benzene-1-sulfonamide] | + (+ = 0 μM ≤ SC150 < 0.05 μM)
CN[C@H]1CC[C@@H](Nc2cccc3c2cc(C#CCNc2ccc(S(C)(=O)=O)cc2OC)n3CC(F)(F)F)[C@H](F)C1 [Compound 937A] | + (+ = 0 μM ≤ SC150 < 0.05 μM)
COc1cc(C(=O)NCCO)ccc1NCC#Cc1cc2c(N[C@@H]3CCN(C)C[C@@H]3F)cccc2n1CC(F)(F)F [Compound 947A] | + (+ = 0 μM ≤ SC150 < 0.05 μM)
COCC(=O)N1CC[C@H](Nc2cccc3c2cc(C#CCNc2ccc(S(C)(=O)=O)cc2OC)n3CC(F)(F)F)[C@H](F)C1 [Compound 867A, 1-[(3R,4S)-3-fluoro-4-[(2-{3-[(4-methanesulfonyl-2-methoxyphenyl)amino]prop-1-yn-1-yl}-1-(2,2,2-trifluoroethyl)-1H-indol-4-yl)amino]piperidin-1-yl]-2-methoxyethan-1-one] | + (+ = 0 μM ≤ SC150 < 0.05 μM)
COc1cc(S(C)(=O)=O)c(F)cc1NCC#Cc1cc2c(NC3CCN(C)CC3)cccc2n1CC(F)(F)F [Compound 522A, 2-{3-[(5-fluoro-4-methanesulfonyl-2-methoxyphenyl)amino]prop-1-yn-1-yl}-N-(1-methylpiperidin-4-yl)-1-(2,2,2-trifluoroethyl)-1H-indol-4-amine] | + (+ = 0 μM ≤ SC150 < 0.05 μM)

Source: patent US12428406B2 (PMV Pharmaceuticals, Inc., priority 2019, dated 2025)
